Five molecules from ChEMBL document CHEMBL1150196, “Isolation and structure of cytostatic steroidal saponins from the African medicinal plant Balanites aegyptica” (1991) can be followed below.

Molecules are shown by their SMILES. ≈ marks a conversion by molar mass, not a printed value.

The test system of the test is P388. The experiment in a line: Cytotoxicity against mouse P388 cells. In kind it is functional. Conditions: read-out: ED50 (the source's name).
Regarding `C[C@H]1CC[C@@]2(OC1)O[C@H]1C[C@H]3[C@@H]4CC=C5C[C@@H](O[C@@H]6O[C@H](CO)[C@@H](O[C@@H]7O[C@H](CO)[C@@H](O)[C@H](O[C@@H]8O[C@H](CO)[C@@H](O)[C@H](O)[C@H]8O)[C@H]7O)[C@H](O)[C@H]6O[C@@H]6O[C@@H](C)[C@H](O)[C@@H](O)[C@H]6O)CC[C@]5(C)[C@H]4CC[C@]3(C)[C@H]1[C@@H]2C` [BALANITIN 4], the EC50 is 0.41 µg/mL (≈ 0.392 µM).
With `C[C@H]1CC[C@@]2(OC1)O[C@H]1C[C@H]3[C@@H]4CC=C5C[C@@H](O[C@@H]6O[C@H](CO)[C@@H](O[C@@H]7O[C@H](CO)[C@@H](O)[C@H](O[C@@H]8O[C@@H](C)[C@H](O)[C@@H](O)[C@H]8O)[C@H]7O)[C@H](O)[C@H]6O[C@@H]6O[C@@H](C)[C@H](O)[C@@H](O)[C@H]6O)CC[C@]5(C)[C@H]4CC[C@]3(C)[C@H]1[C@@H]2C` [BALANITIN 5] the figure was 2.4 µg/mL (≈ 2.33 µM); with `C[C@H]1CC[C@@]2(OC1)O[C@H]1C[C@H]3[C@@H]4CC=C5C[C@@H](O[C@@H]6O[C@H](CO)[C@@H](O[C@@H]7O[C@H](CO)[C@@H](O)[C@H](O)[C@H]7O)[C@H](O)[C@H]6O[C@@H]6O[C@@H](C)[C@H](O)[C@@H](O)[C@H]6O)CC[C@]5(C)[C@H]4CC[C@]3(C)[C@H]1[C@@H]2C` [BALANITIN 6], 0.21 µg/mL (≈ 0.237 µM); with `C[C@H]1CC[C@@]2(OC1)O[C@H]1C[C@H]3[C@@H]4CC=C5C[C@@H](O[C@@H]6O[C@H](CO)[C@@H](O[C@@H]7O[C@H](CO)[C@@H](O)[C@H](O[C@@H]8OC[C@@H](O)[C@H](O)[C@H]8O)[C@H]7O)[C@H](O)[C@H]6O[C@@H]6O[C@@H](C)[C@H](O)[C@@H](O)[C@H]6O)CC[C@]5(C)[C@H]4CC[C@]3(C)[C@H]1[C@@H]2C` [BALANITIN 7], 0.22 µg/mL (≈ 0.216 µM).
Next, `O=c1[nH]cc(F)c(=O)[nH]1` [FLUOROURACIL]: 0.08 µg/mL (≈ 0.615 µM).
